Measurements from ChEMBL document CHEMBL1149531, “Inhibitory effect of 2-arylbenzofurans from Erythrina addisoniae on protein tyrosine phosphatase-1B” (Bioorg Med Chem Lett, 2007).

Target: T1, Tyrosine-protein phosphatase non-receptor type 1 (Homo sapiens, UniProt P18031)
T1 sequence (P18031 whole entry): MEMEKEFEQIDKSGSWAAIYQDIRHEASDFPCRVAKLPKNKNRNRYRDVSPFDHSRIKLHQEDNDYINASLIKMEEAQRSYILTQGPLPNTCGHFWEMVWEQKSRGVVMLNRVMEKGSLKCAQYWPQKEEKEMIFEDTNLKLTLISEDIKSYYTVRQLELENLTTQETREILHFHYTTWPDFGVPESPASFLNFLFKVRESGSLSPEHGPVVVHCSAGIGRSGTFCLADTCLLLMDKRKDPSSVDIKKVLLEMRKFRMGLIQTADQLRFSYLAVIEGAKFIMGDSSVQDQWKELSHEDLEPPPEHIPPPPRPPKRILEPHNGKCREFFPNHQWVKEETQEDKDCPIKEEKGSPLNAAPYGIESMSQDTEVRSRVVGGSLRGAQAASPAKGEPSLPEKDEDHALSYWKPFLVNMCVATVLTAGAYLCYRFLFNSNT

| Compound | IC50 [µM] |
| --- | --- |
| COc1cc(O)ccc1-c1cc2cc(CC=C(C)C)c(O)cc2o1 [ADDISOFURAN B] | 15.7 |
| CC1(C)C=Cc2c(O)ccc(-c3cc4ccc(O)cc4o3)c2O1 | 62.7 |
| COc1cc(O)c(CC=C(C)C)cc1-c1cc2ccc(O)cc2o1 [ADDISOFURAN A] | 17.5 |

The next lines start with the values.

| IC50 [µM] | Compound |
| --- | --- |
| 13.6 | CC(C)=CCc1c(O)ccc(-c2cc3ccc(O)cc3o2)c1O [2'-O-DEMETHYLBIDWILLOL B] |
| 64.9 | CC1(C)C=Cc2c(ccc(-c3cc4ccc(O)cc4o3)c2O)O1 |
| 74.1 | COc1ccc2cc(-c3ccc(O)cc3OC)oc2c1 |
